Laboratory results published in patent publication US20260216294A1, “BETA 2-ADRENERGIC RECEPTOR AGONISTS FOR TREATMENT OR PREVENTION OF MUSCLE WASTING” (ATROGI AB, priority 2023, published 2026).

Legend:
[1] = test system: L6-myotubes; experiment: Glucose uptake in differentiated L6-myotubes (Biological Example 2); assay type: cell-based; conditions: read-out: Biological example 2 (GU)
Protocol: (§1) Compounds described in publications referenced and incorporated herein were screened in accordance with the procedures outlined in Biological example 2 and Biological example 3.
Differentiated L6-myotubes were serum-starved overnight in medium containing 0.5% fatty-acid free BSA and stimulated with isoprenaline or the test compound, with a final concentration of 1×10^−5 M. After 1 h 40 min the cells were washed with warm glucose free medium or PBS twice and another portion of agonist was added to the glucose free medium. After 20 min the cells were exposed to 50 nM ^3H-2-deoxyglucose for 10 min before washed with ice cold glucose free medium or PBS three times and lysed with 0.2 M NaOH, 400 μL/well, for 1 h at 60° C. The cell lysate was mixed with 4 mL scintillation buffer (Emulsifier Safe, Perkin Elmer) and the radioactivity was detected in a […] (Tri-Carb 4810TR, Perkin Elmer).

[2] = test system: L6-myotubes; experiment: Measurement of intracellular cAMP levels in differentiated L6-myotubes (Biological Example 3); assay type: cell-based; conditions: 0.25 h
Protocol: as §1
Differentiated L6-myotubes were serum-starved overnight and stimulated with isoprenaline or the test compound with a final concentration of 1×10^−5 M, for 15 min in stimulation buffer (HBSS supplemented with 1% BSA, 5 mM HEPES and 1 mM IBMX, pH 7.4). The medium was aspirated and 100 μL of 95% EtOH was added to each well of the 24-well plate and cells were kept at −20° C. overnight. The EtOH was allowed to evaporate and 500 μL of lysis buffer (1% BSA, 5 mM HEPES and 0.3% Tween-20, pH 7.4) was added to each well. The plate was kept at −80° C. for 30 min and then at −20° C. until the day of detection when the samples were thawed. Intracellular cAMP levels were detected using an alpha screen cAMP kit (6760635D from Perkin Elmer).

[3] = glucose uptake in differentiated L6-myotubes, compound at 10 μM, activity relative to isoproterenol at 10 μM
[4] = intracellular cAMP in differentiated L6-myotubes, compound at 10 μM, activity relative to isoproterenol at 10 μM
[5] = glucose uptake, compound at 10 μM relative to isoproterenol at 10 μM
[6] = intracellular cAMP, compound at 10 μM relative to isoproterenol at 10 μM

SMILES	Emax at 10 µM [1, 3]	Emax at 10 µM [2, 4]	Emax at 10 µM [1, 5]	Emax at 10 µM [2, 6]
COc1ccc(CC23CCC([C@@H](O)c4cccc(F)c4)(CC2)N3)cc1 [Compound 400, (S)-(m-fluorophenyl){4-[(p-methoxyphenyl)methyl]-7-azabicyclo[[2.2.1]]hept-1-yl}methanol]	50 to 75%	< 25%	–	–
CC(C)(C[C@H]1CC[C@H](C(=O)O)CC1)NC[C@H](O)c1cncc(F)c1 [Compound 356, (1R,4r)-4-{2-[(R)-2-(5-fluoro-3-pyridyl)-2-hydroxyethylamino]-2-methylpropyl} cyclohexanecarboxylic acid]	< 25%	< 25%	–	–
CC(C)(NC[C@H](O)c1cncc(F)c1)[C@H]1CC[C@H](O)CC1 [Compound 285, (R)-1-(5-fluoro-3-pyridyl)-2-{1-methyl-1-[(1r,4R)-4-hydroxycyclohexyl]ethylamino}-1-ethanol]	50 to 75%	< 25%	–	–
CCCCNCC(O)c1cccnc1 (stereo not drawn) [Compound 49, 2-(butylamino)-1-(3-pyridyl)-1-ethanol]	–	–	50 to 75%	< 25%
CCC[C@H]1CC[C@@H]([C@@H](O)c2cccc(F)c2)N1 [Compound 131, (S)-[(2S,5S)-5-propyl-2-pyrrolidinyl](m-fluorophenyl)methanol]	–	–	50 to 75%	< 25%
CO[C@H]1CC[C@H](C[C@H]2CC[C@H]([C@H](O)c3ccccc3F)N2)CC1 [Compound 339, (R)-[(2R,5R)-5-{[(1r,4R)-4-methoxycyclohexyl]methyl}-2-pyrrolidinyl](o-fluorophenyl)methanol]	> 75%	< 25%	–	–
O[C@@H](CNC[C@H]1CC[C@@H](OCc2ccccc2)CC1)c1cncc(F)c1 [Compound 263, (R)-1-(5-fluoro-3-pyridyl)-2-({[(1s,4S)-4-(benzyloxy)cyclohexyl]methyl}amino)-1-ethanol]	> 75%	< 25%	–	–
COC(=O)[C@H]1CC[C@H](C(C)(C)NC[C@H](O)c2cncc(F)c2)CC1 [Compound 370, (1R,4r)-8-[(R)-2-(5-fluoro-3-pyridyl)-2-hydroxyethylamino]-7-methoxy-p-menthan-7-one]	> 75%	< 25%	–	–
O[C@@H](c1cccc(F)c1)[C@H]1CCC2(CCCC2)N1 [Compound 169]	–	–	< 25%	< 25%
CCOC(=O)CO[C@H]1CC[C@H](C(C)(C)NC[C@H](O)c2cncc(F)c2)CC1 [Compound 409, ethyl[[(1R,4r)-4-{1-[(R)-2-(5-fluoro-3-pyridyl)-2-hydroxyethylamino]-1-methylethyl}cyclohexyloxy]]acetate]	> 75%	< 25%	–	–
CC1(C)CC[C@H]([C@@H](O)c2cccc(N)c2F)N1 [Compound 226, (S)-[(R)-5,5-dimethyl-2-pyrrolidinyl](3-amino-2-fluorophenyl)methanol]	25 to 50%	< 25%	–	–
CC(=O)N[C@H]1CC[C@@H](CC(C)(C)NC[C@H](O)c2cccc(F)c2)CC1 [Compound 452]	> 75%	< 25%	–	–
O[C@@H](CNCC[C@H]1CC[C@@H](O)CC1)c1cccc(F)c1 [Compound 297, (R)-1-(m-fluorophenyl)-2-{2-[(1s,4S)-4-hydroxycyclohexyl]ethylamino}-1-ethanol]	50 to 75%	< 25%	–	–
COc1ccc(C[C@@H]2CC[C@H]([C@H](O)c3cncc(F)c3)N2)cc1 [Compound 378, (R)-{(2R,5S)-5-[(p-methoxyphenyl)methyl]-2-pyrrolidinyl}(5-fluoro-3-pyridyl)methanol]	> 75%	< 25%	–	–
CC1(C)C[C@H]([C@@H](O)c2cccc(Cl)c2)N1 [Compound 233, (S)-[(R)-4,4-dimethyl-2-azetidinyl](m-chlorophenyl)methanol]	< 25%	< 25%	–	–
